# In patent publication US8895512B2, “Composition for improving brain function and method for improving brain function” (Calpis Co., Ltd., priority 2010, dated 2014):
# Key:
# ACE = ACE (Homo sapiens, UniProt P12821); conditions: reported in reference 3; cited from earlier work
# [1] = system: scopolamine-induced amnesia; conditions: male ddY mice; single oral dose of 5000 nmol/kg weight (1300 μg/kg) 60 min before Y-shaped maze test; scopolamine 1 mg/kg s.c. 30 min before test
# Procedure: Water (control), scopolamine alone, or 500 nmol/kg weight or 5000 nmol/kg weight of FP together with scopolamine, was administered to mice, and their respective prophylactic effects against amnesia were evaluated in accordance with a method described in Example 1.
# Male mice (n=15) of the ddY strain (approximately 7-week old) were used, and they took food and water ad lib. Test substances used were 500 mol/kg weight (130 μg/kg weight) or 5000 nmol/kg weight (1300 μg/kg weight) of FP. The test substances were administered to the mice once orally 60 minutes before the execution of a Y-shaped maze test for evaluation of spontaneous alternation behavior. […] The sequence of the arms each of the mice entered was recorded. The number of entries by each of the mice for each of the arms during the measurement time was counted to be the total number of entries. […] The percentage of spontaneous alternation behavior was calculated by dividing the number of spontaneous alternation behavior by a number obtained by subtracting 2 from the total number of entries, and multiplying a resultant number by 100. […] The measured values were expressed in the form of mean±standard error for each group. A significant difference between the control group and the scopolamine control group was calculated using Student's t-test. […]
# Sequence of ACE (P12821 30-1306, species assumed): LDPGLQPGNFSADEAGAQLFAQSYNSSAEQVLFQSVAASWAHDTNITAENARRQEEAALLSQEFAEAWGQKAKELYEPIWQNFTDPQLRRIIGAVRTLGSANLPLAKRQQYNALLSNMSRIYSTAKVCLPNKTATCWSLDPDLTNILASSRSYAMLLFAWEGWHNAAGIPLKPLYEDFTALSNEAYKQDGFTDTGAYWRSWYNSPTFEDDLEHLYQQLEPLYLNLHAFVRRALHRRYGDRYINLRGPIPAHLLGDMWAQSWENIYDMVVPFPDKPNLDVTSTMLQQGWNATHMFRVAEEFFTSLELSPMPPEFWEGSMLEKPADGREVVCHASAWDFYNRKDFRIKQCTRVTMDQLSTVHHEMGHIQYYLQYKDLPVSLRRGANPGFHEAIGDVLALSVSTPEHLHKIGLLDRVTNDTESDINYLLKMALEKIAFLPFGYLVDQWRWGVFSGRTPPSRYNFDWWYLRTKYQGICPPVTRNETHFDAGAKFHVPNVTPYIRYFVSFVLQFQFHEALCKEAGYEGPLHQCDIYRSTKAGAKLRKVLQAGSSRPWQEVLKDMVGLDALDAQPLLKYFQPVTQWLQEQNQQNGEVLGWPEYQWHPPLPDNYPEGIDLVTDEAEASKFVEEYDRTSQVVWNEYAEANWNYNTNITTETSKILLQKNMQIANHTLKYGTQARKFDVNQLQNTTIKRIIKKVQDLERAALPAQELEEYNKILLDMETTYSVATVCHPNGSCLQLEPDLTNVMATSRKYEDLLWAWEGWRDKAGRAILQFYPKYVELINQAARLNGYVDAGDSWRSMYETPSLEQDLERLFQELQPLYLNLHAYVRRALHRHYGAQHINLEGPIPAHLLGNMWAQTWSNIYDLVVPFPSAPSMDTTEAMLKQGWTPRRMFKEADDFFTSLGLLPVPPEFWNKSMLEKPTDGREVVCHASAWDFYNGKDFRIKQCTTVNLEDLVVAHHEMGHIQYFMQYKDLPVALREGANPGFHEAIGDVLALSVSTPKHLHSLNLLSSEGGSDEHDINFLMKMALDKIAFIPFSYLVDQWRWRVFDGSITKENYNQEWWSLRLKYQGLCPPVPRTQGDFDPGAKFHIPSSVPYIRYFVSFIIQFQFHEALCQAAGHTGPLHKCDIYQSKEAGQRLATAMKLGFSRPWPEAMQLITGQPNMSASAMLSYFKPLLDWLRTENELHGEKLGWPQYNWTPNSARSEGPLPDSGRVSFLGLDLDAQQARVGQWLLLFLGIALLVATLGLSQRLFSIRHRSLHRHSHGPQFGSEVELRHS
substance,measurement,setting,value
Phe-Pro,hypotensive lowering activity based on ACE inhibitory activity,ACE,hypotensive lowering activity based on ACE inhibitory activity has been reported
same,prophylactic activity against amnesia (percentage of spontaneous alternation behavior),[1],had a prophylactic activity against amnesia
